The text below walks through data of patent US7368457B2, “Bridged N-arylsulfonylpiperidines as gamma-secretase inhibitors” (Schering Corporation, priority 2003, dated 2008).

The target of the assay is T1, gamma secretase (Homo sapiens, UniProt P49768).
T1 construct: endogenous in cells; host or cells: Membranes of 293 T-REx cells, clone pTRE.15; The enzyme is endogenous; only the substrate SPC99-Lon is transfected
Kind of assay: Gamma secretase activity in membranes of 293 cells expressing C99 (SPC99-Lon), Aβ 40 / Aβ 42 ECL immunoassay. The format is biochemical. The text has this: Reagents. Antibodies WO2, G2-10, and G2-11 were obtained from Dr. Konrad Beyreuther (University of Heidelberg, Heidelberg, Germany). WO2 recognizes residues 5-8 of Aβ peptide, while G2-10 and G2-11 recognize the specific C-terminal structure of Aβ 40 and Aβ 42, respectively. Biotin-4G8 was purchased from Senetec (St. Louis, Mo.). All tissue culture reagents used in this work were from Life Technologies, Inc., unless otherwise specified. Pepstatin A was purchased from Roche Molecular Biochemicals; DFK167 was from Enzyme Systems Products (Livermore, Calif.).
cDNA Constructs, Tissue Culture, and Cell Line Construction. […] Upon insertion into the membrane, the 17 amino acid signal peptide is processed, leaving an additional leucine at the N-terminus of Aβ SPC99-Ion was cloned into the pcDNA4/TO vector (Invitrogen) and transfected into 293 cells stably transfected with pcDNA6/TR, which is provided in the T-REx system (Invitrogen). The transfected cells were selected in Dulbecco's modified Eagle's media (DMEM) supplemented with 10% fetal bovine serum, 100 units/mL penicillin, 100 µg/mL streptomycin, 250 µg/mL zeocin, and 5 µg/mL blasticidin (Invitrogen). Colonies were screened for Aβ production by inducing C99 expression with […] tetracycline for 16-20 h and analyzing conditioned media with a sandwich immunoassay (see below). One of the clones, designated as pTRE.15, was used in these studies.
Membrane Preparation. C99 expression in cells was induced with […] tetracycline for 20 h. The cells were pretreated with […] 12-myristate 13-acetate (PMA) and […] brefeldin A (BFA) for 5-6 h at 37 C before harvesting. The cells were washed 3 times with cold phosphate-buffered saline (PBS) and harvested in buffer A containing 20 mM Hepes (pH 7.5), 250 mM sucrose, 50 mM KCl, 2 mM EDTA, 2 mM EGTA, and Complete protease inhibitor tablets (Roche Molecular Biochemicals). The cell pellets were flash-frozen in liquid nitrogen and stored at −70 C before use.
To make membranes, the cells were resuspended in buffer A and lysed in a nitrogen bomb at 600 psi. The cell lysate was centrifuged at 1500 g for 10 min to remove nuclei and large cell debris. The supernatant was centrifuged at 100000 g for 1 h. The membrane pellet was resuspended in buffer A plus 0.5 M NaCl, and the membranes were collected by centrifugation at 200000 g for 1 h. The salt-washed membrane pellet was washed again in buffer A and centrifuged at 100000 g for 1 h. The final membrane pellet was resuspended in a small volume of buffer A using a Teflon-glass homogenizer. The protein concentration was determined, and membrane aliquots were flash-frozen in liquid nitrogen and stored at −70° C.
γ-Secretase Reaction and Aβ Analysis. To measure γ-secretase activity, membranes were incubated at 37° C. for 1 h in 50 μL of buffer containing 20 mM Hepes (pH 7.0) and 2 mM EDTA. At the end of the incubation, Aβ 40 and Aβ 42 were measured using an electrochemiluminescence (ECL)-based immunoassay. Aβ 40 was identified with antibody pairs TAG-G2-10 and biotin-WO2, while Aβ 42 was identified with TAG-G2-11 and biotin-4G8. The ECL signal was measured using an ECL-M8 instrument (IGEN International, Inc.) according to the manufacturer's instructions. The data presented were the means of the duplicate or triplicate measurements in each experiment.

Where [1] appears, read: gamma secretase membrane assay, ranges given as 'about 0.1 to about 1.0 μM' and 'about 1 to about 10 μM', read-out: IC50.

SMILES strings stand for the structures. Where two headings read alike, the source gives them in different places.

As for `CC(C)N1CCN(C(=O)OC2C[C@H]3CCC2N3S(=O)(=O)c2ccc(Cl)cc2)CC1` (stereo partly shown) [Example 40], under setting [1], the IC50 lay within 1000 to 10000 nM.
Take `CC(C)N1CCN(C(=O)O[C@H]2CCC3CCCC2N3S(=O)(=O)c2ccc(Cl)cc2)CC1` (stereo partly shown) [Example 21]: the IC50 under setting [1] fell in the range of 100 to 1000 nM.
Same read-out and setting: with `O=C(O[C@H]1CCC2CCCC1N2S(=O)(=O)c1ccc(Cl)cc1)N1CCC(O)(c2ccc(Cl)cc2)CC1` (stereo partly shown) [Example 24] the figure was 100 to 1000 nM; with `O=C(OC1C[C@H]2CCC1N2S(=O)(=O)c1ccc(Cl)cc1)N1CCN(C2CCCCC2)CC1` (stereo partly shown) [Example 36], 1000 to 10000 nM; with `O=C(O[C@H]1CCC2CCCC1N2S(=O)(=O)c1ccc(Cl)cc1)N1CCN(CCO)CC1` (stereo partly shown) [Example 14], 100 to 1000 nM.
The same measure, in the same setting: as for `O=C(O[C@H]1CCC2CCCC1N2S(=O)(=O)c1ccc(Cl)cc1)N1CCC[C@H]1CO` (stereo partly shown) [Example 28], the figure is 100 to 1000 nM; as for `O=C(O[C@H]1CCC2CCCC1N2S(=O)(=O)c1ccc(Cl)cc1)N1CCN(CCCO)CC1` (stereo partly shown) [Example 22], 100 to 1000 nM.
The same measure, in the same setting: as for `CN1CCN(C(=O)O[C@H]2CCC3CCCC2N3S(=O)(=O)c2ccc(Cl)cc2)CC1` (stereo partly shown) [Example 26], the figure is 100 to 1000 nM.
For `O=C(O[C@@H]1C=CC2CCCC1N2S(=O)(=O)c1ccc(Cl)cc1)N1CCC(N2CCCCC2)CC1` (stereo partly shown) [Example 34], the IC50 under setting [1] lay within 100 to 1000 nM.
With `O=C(O[C@@H]1CCC2CCCC1N2S(=O)(=O)c1ccc(Cl)cc1)N1CCC(N2CCCCC2)CC1` (stereo partly shown) [Example 15], the IC50 lay within 1000 to 10000 nM.
`COC(=O)C1CCN(C(=O)O[C@H]2CCC3CCCC2N3S(=O)(=O)c2ccc(Cl)cc2)CC1` (stereo partly shown) [Example 27]: the IC50 under setting [1] lay within 100 to 1000 nM.
Regarding `CCN(CC)C(=O)C1CCCN(C(=O)O[C@H]2CCC3CCCC2N3S(=O)(=O)c2ccc(Cl)cc2)C1` (stereo partly shown) [Example 25], the IC50 under setting [1] was in the range of 100 to 1000 nM.
`CCN1CCN(C(=O)OC2C[C@H]3CCC2N3S(=O)(=O)c2ccc(Cl)cc2)CC1` (stereo partly shown) [Example 37]: the 50% inhibitory concentration (IC50) under setting [1] lay in the range of 1000 to 10000 nM.
Take `O=C(O[C@H]1CCC2CCCC1N2S(=O)(=O)c1ccc(Cl)cc1)N1CCC(N2CCCCC2)CC1` (stereo partly shown) [Example 16]: the IC50 was roughly 16 nM.
Regarding `CCN(Cc1ccncc1)C(=O)O[C@H]1CCC2CCCC1N2S(=O)(=O)c1ccc(Cl)cc1` (stereo partly shown) [Example 29], under setting [1], the IC50 was 100 to 1000 nM.
Same read-out and setting: as for `O=C(O[C@H]1CCC2CCCC1N2S(=O)(=O)c1ccc(Cl)cc1)N1CCN(c2ccccc2)CC1` (stereo partly shown) [Example 23], the figure is 100 to 1000 nM; as for `O=C(OC1CC2CCC1N2S(=O)(=O)c1ccc(Cl)cc1)N1CCC(N2CCCCC2)CC1` (stereo not shown) [Example 35], 1000 to 10000 nM; as for `O=C(O[C@H]1CCC2CCC1N2S(=O)(=O)c1ccc(Cl)cc1)N1CCC(N2CCCCC2)CC1` (stereo partly shown) [Example 43], 100 to 1000 nM.
In the case of `O=C(O[C@H]1CCC2CCCC1N2S(=O)(=O)c1ccc(Cl)cc1)N1CCN(CC2CC2)CC1` (stereo partly shown) [Example 17], the IC50 under setting [1] was 100 to 1000 nM.

The IC50 is the concentration that gives 50% inhibition.
